Paper PMC10094600, “Enzymatic Synthesis of 2-Chloropurine Arabinonucleosides with Chiral Amino Acid Amides at the C6 Position and an Evaluation of Antiproliferative Activity In Vitro” (International Journal of Molecular Sciences, 2023)

Biological target: T1, E. coli adenosine deaminase (Escherichia coli, UniProt P22333)
T1 construct: gene add; recombinant
T1 sequence (P22333 1-333): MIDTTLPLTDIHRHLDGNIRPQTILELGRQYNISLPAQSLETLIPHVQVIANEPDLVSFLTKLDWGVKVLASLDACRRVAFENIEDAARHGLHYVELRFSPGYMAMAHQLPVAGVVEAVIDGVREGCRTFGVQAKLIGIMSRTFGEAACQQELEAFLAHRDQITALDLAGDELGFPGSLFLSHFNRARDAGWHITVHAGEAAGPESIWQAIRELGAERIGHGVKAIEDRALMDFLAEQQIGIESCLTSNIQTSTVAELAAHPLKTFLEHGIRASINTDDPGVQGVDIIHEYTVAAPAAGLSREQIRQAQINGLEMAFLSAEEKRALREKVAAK
Experiment: inhibition of adenosine deamination, HPLC, Lineweaver-Burk
Format: biochemical

SMILES | Ki
Nc1nc(Cl)nc2c1ncn2[C@@H]1O[C@H](CO)[C@@H](O)[C@H]1O [compound 15, 2-chloradenosine] | 78 ± 12 µM
NC(=O)[C@H](CO)Nc1nc(Cl)nc2c1ncn2[C@@H]1O[C@H](CO)[C@@H](O)[C@@H]1O [4b, 9-β-D-Arabinofuranosyl-2-chloro-6-(N^α-L-serinylamido)-purine] | 1200 ± 200 µM
Nc1nc(Cl)nc2c1ncn2[C@@H]1O[C@H](CO)[C@@H](O)[C@@H]1O [compound 16, 6-Amino-2-chloro-9-beta-D-arabinofuranosyl-9H-purine] | 130 ± 20 µM
